This passage reports DC50 results from patent US20260053932A1, “COMPOUNDS AND METHODS FOR THE TARGETED DEGRADATION OF ANDROGEN RECEPTOR AND ASSOCIATED METHODS OF USE” (Arvinas Operations, Inc., priority 2020, published 2026).

SMILES strings stand for the structures.

The assay has as its system androgen receptor (AR) in LNCaP and/or VCaP cells. Briefly: Androgen Receptor ELISA assay (AR degradation). The format is cell-based. Conditions: degradation of AR ELISA in LNCaP and/or VCaP cells; Table 2C; read-out: DC50 Code*. In short, it runs like this: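 VCaP cells grown ≥3 days, then treated 5 h with compound in media containing 1 nM R1881 (10× stock). Cells lysed and AR quantified by sandwich ELISA (mouse AR detection Ab, HRP anti-mouse, TMB). DC50 and Dmax derived from AR degradation.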
Consider `COc1cc(O[C@H]2C(C)(C)[C@H](NC(=O)c3ccc(N4CCC(CN(CCN5CCOCC5)[C@H]5C[C@H](Oc6ccc7c(c6)C(=O)N(C6CCC(=O)NC6=O)C7=O)C5)CC4)cc3)C2(C)C)ccc1C#N` (some centres unmarked) [compound 204, N-((1r,3r)-3-(4-cyano-3-methoxyphenoxy)-2,2,4,4-tetramethylcyclobutyl)-4-(4-((((1r,3r)-3-((2-(2,6-dioxopiperidin-3-yl)-1,3-dioxoisoindolin-5-yl)oxy)cyclobutyl)(2-morpholinoethyl)amino)methyl)piperidin-1-yl)benzamide], for which the DC50 (in general, the midpoint of the concentration-degradation curve) is under 1 nM.

As to `Cc1cc(O[C@H]2C(C)(C)[C@H](NC(=O)c3ccc(N4CCC(CN(C(C)C)[C@H]5C[C@H](Oc6ccc7c(c6)C(=O)N([C@H]6CCC(=O)NC6=O)C7=O)C5)CC4)cc3)C2(C)C)cc(C)c1C#N` [compound 205, N-((1r,3r)-3-(4-cyano-3,5-dimethylphenoxy)-2,2,4,4-tetramethylcyclobutyl)-4-(4-((((1S,3r)-3-((2-((S)-2,6-dioxopiperidin-3-yl)-1,3-dioxoisoindolin-5-yl)oxy)cyclobutyl) (isopropyl)amino)methyl)piperidin-1-yl)benzamide], the DC50 is under 1 nM.

Turning to `CCN(CC1CCN(c2cnc(C(=O)N[C@H]3C(C)(C)[C@H](Oc4cc(C)c(C#N)c(C)c4)C3(C)C)cn2)CC1)[C@H]1C[C@H](Oc2ccc3c(c2)C(=O)N(C2CCC(=O)NC2=O)C3=O)C1` (some centres unmarked) [compound 206, N-((1r,3r)-3-(4-cyano-3,5-dimethylphenoxy)-2,2,4,4-tetramethylcyclobutyl)-5-(4-((((1r,3r)-3-((2-(2,6-dioxopiperidin-3-yl)-1,3-dioxoisoindolin-5-yl)oxy)cyclobutyl) (ethyl)amino)methyl)piperidin-1-yl)pyrazine-2-carboxamide], the DC50 is under 1 nM.

As to `COc1cc(O[C@H]2C(C)(C)[C@H](NC(=O)c3cnc(N4CCC(CN(CCN5CCOCC5)[C@H]5C[C@H](Oc6ccc7c(c6)C(=O)N(C6CCC(=O)NC6=O)C7=O)C5)CC4)cn3)C2(C)C)ccc1C#N` (some centres unmarked) [compound 209, N-((1r,3r)-3-(4-cyano-3-methoxyphenoxy)-2,2,4,4-tetramethylcyclobutyl)-5-(4-((((1r,3r)-3-((2-(2,6-dioxopiperidin-3-yl)-1,3-dioxoisoindolin-5-yl)oxy)cyclobutyl)(2-morpholinoethyl)amino)methyl)piperidin-1-yl)pyrazine-2-carboxamide], the DC50 was under 1 nM.

Turning to `COc1cc(O[C@H]2C[C@H](N(CCN3CCOCC3)CC3CCN(c4cnc(C(=O)N[C@H]5C(C)(C)[C@H](Oc6cc(C)c(C#N)c(C)c6)C5(C)C)cn4)CC3)C2)cc2c1C(=O)N(C1CCC(=O)NC1=O)C2=O` (some centres unmarked) [compound 210, N-((1r,3r)-3-(4-cyano-3,5-dimethylphenoxy)-2,2,4,4-tetramethylcyclobutyl)-5-(4-((((1r,3r)-3-((2-(2,6-dioxopiperidin-3-yl)-7-methoxy-1,3-dioxoisoindolin-5-yl)oxy)cyclobutyl)(2-morpholinoethyl)amino)methyl)piperidin-1-yl)pyrazine-2-carboxamide], the DC50 is under 1 nM.

For `Cc1cc(O[C@H]2C(C)(C)[C@H](NC(=O)c3ccc(N4CCC(CN5CCOC[C@@H]5COc5ccc6c(c5)C(=O)N(C5CCC(=O)NC5=O)C6=O)CC4)cc3)C2(C)C)cc(C)c1C#N` (stereo partly drawn) [compound 213, N-((1r,3R)-3-(4-cyano-3,5-dimethylphenoxy)-2,2,4,4-tetramethylcyclobutyl)-4-(4-(((3R)-3-(((2-(2,6-dioxopiperidin-3-yl)-1,3-dioxoisoindolin-5-yl)oxy)methyl)morpholino)methyl)piperidin-1-yl)benzamide], the DC50 is under 1 nM.

As for `CC1(C)[C@H](NC(=O)c2ccc(N3CCC(CN(CCN4CCOCC4)[C@H]4C[C@H](Oc5ccc6c(c5)C(=O)N(C5CCC(=O)NC5=O)C6=O)C4)CC3)cc2)C(C)(C)[C@H]1Oc1ccc(C#N)c(C#N)c1` (some centres unmarked) [compound 214, N-((1r,3r)-3-(3,4-dicyanophenoxy)-2,2,4,4-tetramethylcyclobutyl)-4-(4-((((1r,3r)-3-((2-(2,6-dioxopiperidin-3-yl)-1,3-dioxoisoindolin-5-yl)oxy)cyclobutyl)(2-morpholinoethyl)amino)methyl)piperidin-1-yl)benzamide], the DC50 is under 1 nM.

For `COc1cc(OCCN2CCOC3(CCN(c4ccc(C(=O)N[C@H]5C(C)(C)[C@H](Oc6cc(C)c(C#N)c(C)c6)C5(C)C)cc4)CC3)C2)cc2c1C(=O)N(C1CCC(=O)NC1=O)C2=O` (some centres unmarked) [compound 215, N-((1r,3r)-3-(4-cyano-3,5-dimethylphenoxy)-2,2,4,4-tetramethylcyclobutyl)-4-(4-(2-((2-(2,6-dioxopiperidin-3-yl)-7-methoxy-1,3-dioxoisoindolin-5-yl)oxy)ethyl)-1-oxa-4,9-diazaspiro[5.5]undecan-9-yl)benzamide], the half-maximal degradation concentration (DC50) is under 1 nM.

Regarding `CCOc1cc(O[C@H]2C(C)(C)[C@H](NC(=O)c3ccc(N4CC(CN(C(C)C)[C@H]5C[C@H](Oc6ccc7c(c6)C(=O)N(C6CCC(=O)NC6=O)C7=O)C5)C4)cc3)C2(C)C)ccc1C#N` (some centres unmarked) [compound 217, N-((1r,3r)-3-(4-cyano-3-ethoxyphenoxy)-2,2,4,4-tetramethylcyclobutyl)-4-(3-((((1r,3r)-3-((2-(2,6-dioxopiperidin-3-yl)-1,3-dioxoisoindolin-5-yl)oxy)cyclobutyl) (isopropyl)amino)methyl)azetidin-1-yl)benzamide], the DC50 is under 1 nM.

On to `CC1(C)[C@H](NC(=O)c2ccc(N3CCC(CN(CCN4CCOCC4)[C@H]4C[C@H](Oc5ccc6c(c5)C(=O)N(C5CCC(=O)NC5=O)C6=O)C4)CC3)cc2)C(C)(C)[C@H]1Oc1ccc(C#N)c(Cl)c1` (some centres unmarked) [compound 219, N-((1r,3r)-3-(3-chloro-4-cyanophenoxy)-2,2,4,4-tetramethylcyclobutyl)-4-(4-((((1r,3r)-3-((2-(2,6-dioxopiperidin-3-yl)-1,3-dioxoisoindolin-5-yl)oxy)cyclobutyl)(2-morpholinoethyl)amino)methyl)piperidin-1-yl)benzamide], for which the DC50 was under 1 nM.

In the case of `Cc1cc(O[C@H]2C(C)(C)[C@H](NC(=O)c3ccc(N4CCC(CN5CCOC[C@H]5COc5ccc6c(c5)C(=O)N(C5CCC(=O)NC5=O)C6=O)CC4)cc3)C2(C)C)cc(C)c1C#N` (stereo partly drawn) [compound 221, N-((1r,3S)-3-(4-cyano-3,5-dimethylphenoxy)-2,2,4,4-tetramethylcyclobutyl)-4-(4-(((3S)-3-(((2-(2,6-dioxopiperidin-3-yl)-1,3-dioxoisoindolin-5-yl)oxy)methyl)morpholino)methyl)piperidin-1-yl)benzamide], the DC50 was under 1 nM.

Regarding `Cc1cc(O[C@H]2C(C)(C)[C@H](NC(=O)c3cnc(N4CCC(CN(CCN5CCOCC5)[C@H]5C[C@H](Oc6ccc7c(c6)C(=O)N(C6CCC(=O)NC6=O)C7=O)C5)CC4)cn3)C2(C)C)cc(C)c1C#N` (some centres unmarked) [compound 230, N-((1r,3r)-3-(4-cyano-3,5-dimethylphenoxy)-2,2,4,4-tetramethylcyclobutyl)-5-(4-((((1r,3r)-3-((2-(2,6-dioxopiperidin-3-yl)-1,3-dioxoisoindolin-5-yl)oxy)cyclobutyl)(2-morpholinoethyl)amino)methyl)piperidin-1-yl)pyrazine-2-carboxamide], the DC50 was under 1 nM.

In the case of `COc1cc(O[C@H]2C[C@H](N(CC3(F)CCN(c4ncc(C(=O)N[C@H]5C(C)(C)[C@H](Oc6cc(C)c(C#N)c(C)c6)C5(C)C)cn4)CC3)C(C)C)C2)cc2c1C(=O)N(C1CCC(=O)NC1=O)C2=O` (some centres unmarked) [compound 231, N-((1r,3r)-3-(4-cyano-3,5-dimethylphenoxy)-2,2,4,4-tetramethylcyclobutyl)-2-(4-((((1r,3r)-3-((2-(2,6-dioxopiperidin-3-yl)-7-methoxy-1,3-dioxoisoindolin-5-yl)oxy)cyclobutyl) (isopropyl)amino)methyl)-4-fluoropiperidin-1-yl)pyrimidine-5-carboxamide], the 50% degradation concentration (DC50) was under 1 nM.

`CC1(C)[C@H](NC(=O)c2cnc(N3CCC(CN(CCN4CCOCC4)[C@H]4C[C@H](Oc5ccc6c(c5)C(=O)N(C5CCC(=O)NC5=O)C6=O)C4)CC3)cn2)C(C)(C)[C@H]1Oc1ccc(C#N)c(C#N)c1` (some centres unmarked) [compound 233, N-((1r,3r)-3-(3,4-dicyanophenoxy)-2,2,4,4-tetramethylcyclobutyl)-5-(4-((((1r,3r)-3-((2-(2,6-dioxopiperidin-3-yl)-1,3-dioxoisoindolin-5-yl)oxy)cyclobutyl)(2-morpholinoethyl)amino)methyl)piperidin-1-yl)pyrazine-2-carboxamide]: the DC50 is under 1 nM.

Consider `CC1(C)[C@H](NC(=O)c2ccc(N3CCC(CN4CCN(c5ccc6c(c5)C(=O)N([C@@]5(C#N)CCC(=O)NC5=O)C6)CC4)CC3)cc2)C(C)(C)[C@H]1Oc1ccc(C#N)c(Cl)c1` [compound 234, N-((1r,3r)-3-(3-chloro-4-cyanophenoxy)-2,2,4,4-tetramethylcyclobutyl)-4-(4-((4-(2-((R)-3-cyano-2,6-dioxopiperidin-3-yl)-3-oxoisoindolin-5-yl)piperazin-1-yl)methyl)piperidin-1-yl)benzamide], for which the 50% degradation concentration (DC50) is under 1 nM.

On to `COc1cc(O[C@H]2C(C)(C)[C@H](NC(=O)c3ccc(N4CCC(CN(CC(F)F)[C@H]5C[C@H](Oc6cc(OC)c7c(c6)C(=O)N(C6CCC(=O)NC6=O)C7=O)C5)CC4)cc3)C2(C)C)ccc1C#N` (some centres unmarked) [compound 235, N-((1r,3r)-3-(4-cyano-3-methoxyphenoxy)-2,2,4,4-tetramethylcyclobutyl)-4-(4-(((2,2-difluoroethyl)((1r,3r)-3-((2-(2,6-dioxopiperidin-3-yl)-7-methoxy-1,3-dioxoisoindolin-5-yl)oxy)cyclobutyl)amino)methyl)piperidin-1-yl)benzamide], for which the DC50 was under 1 nM.

With `CC1(C)[C@H](NC(=O)c2cnc(N3CCC(CN(CCN4CCOCC4)[C@H]4C[C@H](Oc5ccc6c(c5)C(=O)N(C5CCC(=O)NC5=O)C6=O)C4)CC3)cn2)C(C)(C)[C@H]1Oc1ccc(C#N)c(Cl)c1` (some centres unmarked) [compound 237, N-((1r,3r)-3-(3-chloro-4-cyanophenoxy)-2,2,4,4-tetramethylcyclobutyl)-5-(4-((((1r,3r)-3-((2-(2,6-dioxopiperidin-3-yl)-1,3-dioxoisoindolin-5-yl)oxy)cyclobutyl)(2-morpholinoethyl)amino)methyl)piperidin-1-yl)pyrazine-2-carboxamide], the DC50 lay within 1 to 10 nM.
